The record followed here is patent US11919900B1 (priority 2023, dated 2024).

Converted amounts (≈) assume the structure as drawn.

The first experiment relates to Mycobacterium tuberculosis H37Rv (ATCC: 25177). Description: Resazurin Microplate Assay (REMA), antitubercular activity, H37Rv. Type of experiment: cell-based. The settings on record: Middlebrook 7H9 broth, 8 days at 37° C. then resazurin overnight. A general note: The colour change of resazurin is a common sign of viable cells or microbes.
For the compound “Ethyl 4-bromo-1-(2-nitrobenzoyl)pyrrolo[1,2-a]quinoline-3-carboxylate [QUIN-KNV12]”, the “Antitubercular activity against Mycobacterium tuberculosis H37Rv (MIC)” value worked out at 1 µg/mL.

Staying with this experiment, now noted: Mycobacterium tuberculosis, 192 h, Middlebrook 7H9 broth, 8 days at 37° C. then resazurin overnight, read-out: Antitubercular activity against Mycobacterium tuberculosis H37Rv (MIC).
As for `CCOC(=O)c1cc(C(=O)c2ccc(C#N)cc2)n2c1c(Br)cc1ccccc12` [QUIN-KNV10, Ethyl 4-bromo-1-(4-cyanobenzoyl)pyrrolo[1,2-a]quinoline-3-carboxylate], the minimum inhibitory concentration (MIC) (in general, the lowest concentration found to suppress growth) came out at 8 µg/mL (≈ 17.9 µM). The same measure, in the same setting: next, `COC(=O)c1c(C(=O)OC)c2c(Br)cc3ccccc3n2c1C(=O)c1ccccc1` [QUIN-KNV11, Dimethyl 1-benzoyl-4-bromopyrrolo[1,2-a]quinoline-2,3-dicarboxylate]: 32 µg/mL (≈ 68.6 µM); `COC(=O)c1c(C(=O)OC)c2c(Br)cc3ccccc3n2c1C(=O)c1ccc(Br)cc1` [QUIN-KNV5, Dimethyl 4-bromo-1-(4-bromobenzoyl)pyrrolo[1,2-a]quinoline-2,3-dicarboxylate]: 0.5 µg/mL (≈ 0.917 µM). In the case of `CCOC(=O)c1cc(C(=O)c2ccc(Cl)cc2)n2c1c(Br)cc1ccccc12` [QUIN-KNV4, Ethyl 4-bromo-1-(4-chlorobenzoyl)pyrrolo[1,2-a]quinoline-3-carboxylate], the minimal inhibitory concentration (MIC) is 8 µg/mL (≈ 17.5 µM). The same measure, in the same setting: next, `CCOC(=O)c1cc(C(=O)c2ccc(Br)cc2)n2c1c(Br)cc1ccccc12` [QUIN-KNV6, Ethyl 4-bromo-1-(4-bromobenzoyl)pyrrolo[1,2-a]quinoline-3-carboxylate]: 2 µg/mL (≈ 3.99 µM); `COC(=O)c1c(C(=O)OC)c2c(Br)cc3ccccc3n2c1C(=O)c1ccc(C#N)cc1` [QUIN-KNV9, Dimethyl 4-bromo-1-(4-cyanobenzoyl)pyrrolo[1,2-a]quinoline-2,3-dicarboxylate]: 8 µg/mL (≈ 16.3 µM).

With `COC(=O)c1c(C(=O)OC)c2c(Br)cc3ccccc3n2c1C(=O)c1ccc(F)cc1` [QUIN-KNV7, Dimethyl 4-bromo-1-(4-fluorobenzoyl)pyrrolo[1,2-a]quinoline-2,3-dicarboxylate], the MIC was 16 µg/mL (≈ 33 µM). For `CCOC(=O)c1cc(C(=O)c2ccc(OC)cc2)n2c1c(Br)cc1ccccc12` [QUIN-KNV2, Ethyl 4-bromo-1-(4-methoxybenzoyl)pyrrolo[1,2-a]quinoline-3-carboxylate], the minimum inhibitory concentration (MIC) worked out at 1 µg/mL (≈ 2.21 µM).

Consider `COC(=O)c1c(C(=O)OC)c2c(Br)cc3ccccc3n2c1C(=O)c1ccc(Cl)cc1` [QUIN-KNV3, Dimethyl 4-bromo-1-(4-chlorobenzoyl)pyrrolo[1,2-a]quinoline-2,3-dicarboxylate], for which the minimum inhibitory concentration (MIC) worked out at 1 µg/mL (≈ 2 µM). Same read-out and setting: next, `COC(=O)c1c(C(=O)OC)c2c(Br)cc3ccccc3n2c1C(=O)c1ccc(OC)cc1` [QUIN-KNV1, Dimethyl 4-bromo-1-(4-methoxybenzoyl)pyrrolo[1,2-a]quinoline-2,3-dicarboxylate]: 0.5 µg/mL (≈ 1.01 µM). Still for that read-out and setting: the result for `CCOC(=O)c1cc(C(=O)c2ccc(F)cc2)n2c1c(Br)cc1ccccc12` [QUIN-KNV8, Ethyl 4-bromo-1-(4-fluorobenzoyl)pyrrolo[1,2-a]quinoline-3-carboxylate] reads 1 µg/mL (≈ 2.27 µM).
